What was measured:
[1] = Fluorescence excitation/emission spectroscopy and relative quantum yield; assay type: physicochemical; conditions: 7-MC in presence of 10 mM DTT; for Fluorescence λmax ex: emission at 420 nm; for Fluorescence λmax em: excitation at 280 nm; for Relative quantum yield Φ: relative to 4-MUB in DMF
Experimental: The values determined were close to those observed for the 4-MUB fluorophore.
Both absorbance and fluorescence spectra were measured on a Tecan […] M PLEX 200 Pro plate reader equipped with monochromator allowing a scan from 230 to 1000 nm. […] The solutions were then transferred to a Corning (Corning, NY, USA) UV-transparent 96-well plate. Absorbance spectra were recorded from 230 to 800 nm. Emission fluorescence spectra were recorded from 320 to 800 nm, under excitation at 280 nm. Excitation fluorescence spectra were recorded from 230 to 380 nm for an emission at 420 nm. All spectra were recorded with a wavelength step size of 2 nm. Data processing was performed with Excel software 2016. Fluorescence spectra are presented as normalized spectra ranging from 0 to 1. The relative quantum yields were calculated according to Equation (1):(1) ΦT=(AR/AT)×(FT/FR)×(nT/nR)×ΦR where Φ is the fluorescence quantum yield, A is the absorbance at the excitation wavelength, F is the area under the corrected emission curve, and n is the refractive index of the solvent for the test compound (T) and the reference (R). The 4-MUB value in DMF was used as the reference. The LOD (resp. LOQ) values were determined as the minimal concentration of product S-3 required to yield a fluorescence that was twice greater than (respectively, 5-times that of) the fluorescence noise on a sample containing PBS, using an excitation wavelength of 280 nm and an emission wavelength of 386 nm (Figure S44).

[2] = test system: HaCaT (keratinocyte normal skin); test: MTT cell proliferation assay, HaCaT; assay type: cell-based; conditions: Homo sapiens, 72 h incubation, 95% confidence interval in parentheses
Experimental: To use these S-glycosidic compounds in cellulo, the potential impact of the glycosidic linkage nature on the anticancer activity was assessed. The S-glycoside derivatives and the 7-MC were tested against four human cancer cell lines and a healthy one, namely A549 (lung carcinoma), HS-683 (glioma cancer), MCF-7 (breast adenocarcinoma), SK-MEL-28 (melanoma skin cancer), and HaCaT (keratinocyte normal skin), using MTT (thiazolyl blue tetrazolium bromide, Sigma-Aldrich, St. Louis, MO, USA) assay, as previously described in the literature. The selected reference drugs were 5-fluorouracil (5-FU) and etoposide.
Cell proliferation of five distinct cell lines was evaluated using the colorimetric MTT (thiazolyl blue tetrazolium bromide, Sigma) assay. Human keratinocyte normal skin HaCaT was cultivated in DMEM supplemented with 4.5 g/L glucose, 2 mM L-glutamine, and 10% FBS. Cancer cell lines and their respective growth media were obtained from CLS Cell Line Service GmbH (Eppelheim, Germany). Specifically, human skin melanoma SK-MEL-28 and human brain glioma HS683 were cultivated in DMEM with identical supplements as HaCaT cells. The human lung carcinoma cell line A-549 was grown in DMEM/Ham’s F12 (1:1) medium supplemented with 2 mM L-glutamine and 5% FBS. Additionally, human breast adenoma carcinoma MCF-7 cells were sustained in EMEM supplemented with 2 mM L-glutamine, sodium pyruvate, non-essential amino acids (NEAAs), 10 µg/mL insulin human, and 10% FBS. The MTT assay relies on the reduction of the yellow product thiazolyl blue tetrazolium bromide (MTT) to formazan, a purple-blue product, by mitochondrial dehydrogenases in metabolically active cells. The number of living cells after incubation in the presence (or absence, control) of the tested molecules is directly proportional to the blue color, which was measured by spectrophotometry. To perform the assay, cells were initially seeded at a density of 2500 cells/mL in 96-well culture plates (Nunc™ Edge 2.0, Fisher) and allowed to adhere and proliferate over a 24-hour incubation period. Following this, the cells were treated with various concentrations of the tested compounds, which were previously prepared as serial dilutions and dissolved in 0.1% DMSO. These stable solutions guarantee the consistency of experimental conditions over extended periods. Each concentration of the tested compounds underwent triplicate testing (n = 3), and cells were subsequently incubated for 72 h to allow for thorough evaluation. Following this incubation period, MTT reagent (5 mg/mL solution in PBS) was introduced to each well (10% v/v), and cells were further incubated for 4 h. Then, the culture medium was carefully removed, and the resulting blue formazan crystals were dissolved in 100 µL of 100% DMSO. Absorbance readings were taken at 540 nm, referencing a wavelength of 620 nm, using a spectrophotometer. In determining the IC50, the absorbance of serial dilutions of each cell line, treated under identical conditions but without the presence of the tested compounds, was measured.

Row | Structure (SMILES) | Fluorescence λmax ex ([1]; DMF, 0.1 mM) | Fluorescence λmax em ([1]; DMF, 0.1 mM) | Relative quantum yield Φ ([1]; DMF) | Fluorescence λmax ex ([1]; PBS pH 7.4, 0.1 mM) | Fluorescence λmax em ([1]; PBS pH 7.4, 0.1 mM) | Relative quantum yield Φ ([1]; PBS) | IC50 [2]
1 | Cc1cc(=O)oc2cc(S)ccc12 [Compound 7-MC, 7-mercapto-4-methylcoumarin, reference compound] | 334 nm | 392 nm | 0.009 | 321 nm | 448 nm | 0.020 | 
2 | Cc1cc(=O)oc2cc(S[C@@H]3O[C@H](C(=O)O)[C@@H](O)[C@H](O)[C@H]3O)ccc12 [Compound S-1, 4-Methylumbellifer-7-yl 1-thio-β-D-glucopyranosiduronic acid] | 332 nm | 390 nm | 0.182 | 332 nm | 402 nm | 0.235 | > 1 mM
3 | Cc1cc(=O)oc2cc(S[C@@H]3OC[C@@H](O)[C@H](O)[C@H]3O)ccc12 [Compound S-2, 4-Methylumbellifer-7-yl 1-thio-β-D-xylopyranoside] | 332 nm | 386 nm | 0.186 | 326 nm | 402 nm | 0.181 | 0.162 mM
4 | Cc1cc(=O)oc2cc(S[C@@H]3O[C@H](CO)[C@@H](O)[C@H](O)[C@H]3O)ccc12 [Compound S-3, 4-Methylumbellifer-7-yl 1-thio-β-D-glucopyranoside] | 332 nm | 386 nm | 0.198 | 332 nm | 402 nm | 0.242 | > 1 mM
5 | Cc1cc(=O)oc2cc(S[C@@H]3O[C@H](CO)[C@H](O)[C@H](O)[C@H]3O)ccc12 [Compound S-4, 4-Methylumbellifer-7-yl 1-thio-β-D-galactopyranoside] | 334 nm | 388 nm | 0.223 | 332 nm | 402 nm | 0.271 | > 1 mM
6 | Cc1cc(=O)oc2cc(S[C@@H]3O[C@H](C)[C@H](O)[C@H](O)[C@H]3O)ccc12 [Compound S-5, 4-Methylumbellifer-7-yl 1-thio-β-D-fucopyranoside] | 334 nm | 386 nm | 0.183 | 326 nm | 402 nm | 0.228 | > 1 mM
7 | Cc1cc(=O)oc2cc(S[C@H]3O[C@H](CO)[C@H](O)[C@H](O)[C@H]3O)ccc12 [Compound S-6, 4-Methylumbellifer-7-yl 1-thio-α-D-galactopyranoside] | 334 nm | 388 nm | 0.223 | 332 nm | 416 nm | 0.185 | > 1 mM
